The values below come from the NIST ThermoML archive (doi:10.1021/je400188h).

Numbers after ± are expanded uncertainties.

The conditions of this data set: Crystal; visual observation.

For the compound `O=C(O)[C@@H]1Cc2ccccc2N1` [(S)-indoline-2-carboxylic acid], the Normal melting temperature came out at 177.00 ± 0.5 °C.
